Measured values published in ChEMBL document CHEMBL4619702, “Inhibitors of the Zika virus protease NS2B-NS3” (Bioorg Med Chem Lett, 2020).
Where a SMILES comes first, the peptide text is derived from it. The star is where a group is joined. NHBn = c1ccc(CN*)cc1

Key:
[1] = target: T1, Nonstructural protein 3 (Zika virus, UniProt A0A024AXB9); experiment: Inhibition of Zika virus NS2B-NS3 protease
[2] = target: T1, Nonstructural protein 3; experiment: Inhibition of N-terminal His-tagged Zika virus NS2B-NS3 protease (1 to 187 residues) using Boc-Gly-Arg-Arg-AMC as substrate
[3] = target: T1, Nonstructural protein 3; experiment: Binding affinity to N-terminal His-tagged Zika virus NS2B-NS3 protease (1 to 187 residues) using Boc-Gly-Arg-Arg-AMC as substrate
[4] = target: T2, Nonstructural protein 3 (Zika virus) (UniProt A0A024AXB9); experiment: Inhibition of Zika virus NS2B-NS3 protease assessed as as ratio of K(obs)/[I] using biotin-tagged peptide (P4-P1) as substrate
[5] = target: T1, Nonstructural protein 3; experiment: Binding affinity to Zika virus NS2B-NS3 protease
[6] = target: T1, Nonstructural protein 3; experiment: (§1) Inhibition of Zika virus NS2B-NS3 protease by cell based assay
[7] = Allosteric inhibition of Flavivirus NS2B-NS3 protease
[8] = Allosteric inhibition of Flavivirus NS2B-NS3 protease by cell based assay; conditions: Orthoflavivirus
[9] = target: T1, Nonstructural protein 3; experiment: Allosteric inhibition of Zika virus NS2B-NS3 protease
[10] = target: T2, Nonstructural protein 3 (Zika virus); experiment: as §1
[11] = target: T3, Genome polyprotein (West Nile virus, UniProt P06935); experiment: Inhibition of West Nile virus NS2B-NS3 protease
[12] = target: T3, Genome polyprotein; experiment: Binding affinity to West Nile virus NS2B-NS3 protease

T3 sequence (P06935 1371-1501 limits assumed): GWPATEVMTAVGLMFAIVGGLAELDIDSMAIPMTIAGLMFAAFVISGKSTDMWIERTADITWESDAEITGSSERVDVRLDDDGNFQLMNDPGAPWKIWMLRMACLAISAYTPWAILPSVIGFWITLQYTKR
T3 sequence (P06935 1502-2120 limits assumed): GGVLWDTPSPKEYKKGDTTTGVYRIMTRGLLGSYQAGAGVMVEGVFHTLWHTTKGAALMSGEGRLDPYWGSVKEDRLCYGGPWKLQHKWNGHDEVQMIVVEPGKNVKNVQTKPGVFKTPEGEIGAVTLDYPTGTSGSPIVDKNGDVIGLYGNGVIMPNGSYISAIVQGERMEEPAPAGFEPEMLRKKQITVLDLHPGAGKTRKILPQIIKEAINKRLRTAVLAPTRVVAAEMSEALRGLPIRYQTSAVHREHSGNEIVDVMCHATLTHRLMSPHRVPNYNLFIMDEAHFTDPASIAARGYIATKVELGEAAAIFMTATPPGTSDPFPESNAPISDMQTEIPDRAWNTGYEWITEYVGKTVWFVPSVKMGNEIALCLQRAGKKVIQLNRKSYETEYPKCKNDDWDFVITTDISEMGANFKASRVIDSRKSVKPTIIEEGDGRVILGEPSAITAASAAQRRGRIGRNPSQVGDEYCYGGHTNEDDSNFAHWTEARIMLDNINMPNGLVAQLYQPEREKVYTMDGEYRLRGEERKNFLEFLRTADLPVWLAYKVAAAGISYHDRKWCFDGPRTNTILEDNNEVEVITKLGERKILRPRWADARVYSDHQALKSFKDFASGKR

For `CN[C@@H](C)C(=O)N[C@H]1CCCC[C@H]2CC[C@@H](C(=O)NC(c3ccccc3)c3ccccc3)N2C1=O`, the IC50 [1] was 100 nM.
Compound `CN[C@@H](C)C(=O)N[C@H]1CN(C(=O)CC(C)C)CC[C@H]2CC[C@@H](C(=O)NC(c3ccccc3)c3ccccc3)N2C1=O` [XEVINAPANT] has an IC50 [2] of 4100 nM, a Ki [2] of 13500 nM and a Kd [3] of 9000 nM.
Work on `CN[C@@H](C)C(=O)N[C@H](C(=O)N1CCC[C@H]1C(=O)Nc1sc(-c2ncco2)nc1-c1ccccc1)C1CCCCC1` [GDC-0917] yielded an IC50 [1] of 300 nM.
Work on `CN[C@@H](C)C(=O)N[C@H](C(=O)N1CCC[C@H]1c1nc(C(=O)c2ccc(F)cc2)cs1)C1CCCCC1` yielded a Ratio [4] of 2.94 ×10⁶ /M/s.
Compound `Cc1ccc(C(=O)Nc2ccc(S(=O)(=O)O)c3cc(S(=O)(=O)O)cc(S(=O)(=O)O)c23)cc1NC(=O)c1cccc(NC(=O)Nc2cccc(C(=O)Nc3cc(C(=O)Nc4ccc(S(=O)(=O)O)c5cc(S(=O)(=O)O)cc(S(=O)(=O)O)c45)ccc3C)c2)c1` [SURAMIN] has an EC50 [5] of 1930 to 39800 nM, an IC50 [1] of 47000 nM and a Kd [6] of 28000 nM.
Compound `CN[C@@H](C)C(=O)N[C@H](C(=O)N1CC[C@H](C)[C@H]1C(=O)Nc1ccccc1-c1ncccn1)C1CCCCC1` has a Ki [1] of 430 nM.
In the case of `CC(C)[C@H](NC(=O)[C@H](C)N)C(=O)N1CCC[C@H]1C(=O)NCc1ccccc1` (H-Ala-Val-Pro-NHBn), the Ki [1] is reported as 140 nM.
For `CC[C@H](NC(=O)[C@H](C)NC)C(=O)N1C[C@@H](O)C[C@H]1Cc1c(-c2[nH]c3cc(F)ccc3c2C[C@@H]2C[C@H](O)CN2C(=O)[C@H](CC)NC(=O)[C@H](C)NC)[nH]c2cc(F)ccc12` [BIRINAPANT], the EC50 [6] was 300 to 600 nM and the IC50 [7] was 200 nM.
`CO[C@@H]1[C@@H](OC(N)=O)[C@@H](O)[C@H](Oc2ccc3c(O)c(NC(=O)c4ccc(O)c(CC=C(C)C)c4)c(=O)oc3c2C)OC1(C)C` [NOVOBIOCIN] gave an IC50 [1] of 14200 nM and an EC50 [6] of 24800 nM.
Compound `O=C1OC2(c3ccccc31)c1cc(I)c(O)c(I)c1Oc1c2cc(I)c(O)c1I` [ERYTHROSINE] has an IC50 [1] of 1700 nM and an EC50 [6] of 600 nM.
`CCN(CCO)CCCC(C)Nc1ccnc2cc(Cl)ccc12` (stereo unspecified) [HYDROXYCHLOROQUINE] showed a Ki [1] of 92300 nM.
With `C[C@@H]1CN(CC(=O)N2CCCC2)CCN1` the IC50 [7] was 380 nM and the EC50 [8] was 1000 nM.
`C[C@@H]1CN(CC(=O)N2CC(C)(C)c3ncc(Cc4ccc(F)cc4)cc32)[C@@H](CN2CCOC[C@H]2C)CN1` showed an IC50 [9] of 820 nM.
In the case of `C[C@@H]1CN(CC(=O)N2CC(C)(C)c3nc(CO)c(Cc4ccc(F)cc4)cc32)[C@@H](CN2CCOC[C@H]2C)CN1` [ASTX-660], the Ki [1] is reported as 800 to 8900 nM.
In the case of `CC(C)C[C@H]1C(=O)N2CCC[C@H]2[C@]2(O)O[C@](NC(=O)[C@@H]3C=C4c5cccc6[nH]c(Br)c(c56)C[C@H]4N(C)C3)(C(C)C)C(=O)N12` [BROMOCRIPTINE], the IC50 [1] is reported as 21600 nM and the EC50 [6] is reported as 13000 nM.
For `Oc1cccc(-c2c3nc(c(-c4cccc(O)c4)c4ccc([nH]4)c(-c4cccc(O)c4)c4nc(c(-c5cccc(O)c5)c5ccc2[nH]5)CC4)C=C3)c1` [TEMOPORFIN], the IC50 [1] was 1100 nM, the EC90 [10] was 120 nM and the EC50 [6] was 22 nM.
`CN[C@@H](C)C(=O)N[C@H]1CC[C@H]2CC[C@@H](C(=O)NC(c3ccccc3)c3ccccc3)N2C1=O` showed a Kd [5] of 2000 nM, an IC50 [1] of 1900 nM and an IC50 [11] of 1900 nM. For the same compound, the Kd [12] was 2000 nM.
